According to patent US6887712B1, “Methods and compositions to lower plasma cholesterol levels” (AtheroGenics, Inc., priority 1998, dated 2005):

Assays:
apoB-100 epitope in VLDL = biological target: T1, apoB-100 epitope in VLDL (Homo sapiens, UniProt P04114); assay: Immunoreactivity sandwich ELISA with VLDL; type: binding; conditions: FIG. 6b
T1 construct: relative to the native VLDL; from tissue; host or cells: VLDL particles (plasma lipoprotein)
Description: (§1) To determine if the binding of the monosuccinic acid ester to VLDL and LDL can cause a change in the structure of apoB-100, an immunoreactivity assay was designed. This is a sandwich ELISA assay which measures the expression of a specific epitope on apoB-100. Essentially the sandwich ELISA consists of a specific monoclonal antibody directed to that epitope on apoB-100 as a capture antibody laid onto a microtitre plate. LDL or VLDL added to the plate is bound to the antibody as a result of recognition of the specific epitope. A second polyclonal antibody is then used to quantify the amount of LDL captured.

[1] = rabbit, in vivo, po, 150 mg/kg/day
Experimental: To examine if the monosuccinic acid ester of probucol partitions with plasma circulating lipoproteins, rabbits were fed a high-fat diet for six weeks and dosed with the compound at a dose of 150 mg/Kg per day orally. The animals were bled at six weeks and plasma lipoproteins isolated at high-speed using ultra-centrifugation.
Whole plasma was fractionated by fast phase liquid chromatography (FPLC) using a Superose 6HR 10/30 column. Elution was performed in a phosphate-buffered saline solution containing 0.01% EDTA and 0.02% NaN3 at a flow rate of 0.3 m/min. Approximately 0.6 ml was collected for each fraction and 20 fractions were available for analysis. The cholesterol content of the peaks corresponding to low density lipoprotein (LDL) and high density lipoprotein (HDL) were compared to CDC reference methods. VLDL corresponds to fractions 4-8 (elution volumes 7.2-9.6), LDL to fractions 9-16 (elution volume 10.2-14.4) and HDL to fractions 17-23 (elution volume 15-18.6).
The monosuccinic acid ester of probucol (MSE) levels in the different lipoprotein fractions were determined by high pressure liquid chromatography (HPLC) using a Rainin C 18 column (830201-C). Fractions corresponding to the different lipoprotein fractions were pooled and dried down by centrifugation under vacuum and resuspended in 0.5 ml of phosphate buffered saline. MSE was extracted with 0.5 ml of ether. 100 ul of the ether solution was added to 400 ul of acetonitrile and 0.02 ml was loaded onto the column. The mobile phase was 75:20:5 acetonitrile, methanol, and 50 mM acetic acid in methanol.
The amount of the MSE bound to each of the lipoproteins was estimated.

[2] = biological target: T2, specific epitope on apoB-100 of LDL (Homo sapiens, UniProt P04114); assay: Immunoreactivity cell-free sandwich ELISA: binding of LDL to capture anti-apoB monoclonal antibody
T2 construct: from tissue; host or cells: LDL particles (plasma lipoprotein)
T2 sequence (P04114 28-4563): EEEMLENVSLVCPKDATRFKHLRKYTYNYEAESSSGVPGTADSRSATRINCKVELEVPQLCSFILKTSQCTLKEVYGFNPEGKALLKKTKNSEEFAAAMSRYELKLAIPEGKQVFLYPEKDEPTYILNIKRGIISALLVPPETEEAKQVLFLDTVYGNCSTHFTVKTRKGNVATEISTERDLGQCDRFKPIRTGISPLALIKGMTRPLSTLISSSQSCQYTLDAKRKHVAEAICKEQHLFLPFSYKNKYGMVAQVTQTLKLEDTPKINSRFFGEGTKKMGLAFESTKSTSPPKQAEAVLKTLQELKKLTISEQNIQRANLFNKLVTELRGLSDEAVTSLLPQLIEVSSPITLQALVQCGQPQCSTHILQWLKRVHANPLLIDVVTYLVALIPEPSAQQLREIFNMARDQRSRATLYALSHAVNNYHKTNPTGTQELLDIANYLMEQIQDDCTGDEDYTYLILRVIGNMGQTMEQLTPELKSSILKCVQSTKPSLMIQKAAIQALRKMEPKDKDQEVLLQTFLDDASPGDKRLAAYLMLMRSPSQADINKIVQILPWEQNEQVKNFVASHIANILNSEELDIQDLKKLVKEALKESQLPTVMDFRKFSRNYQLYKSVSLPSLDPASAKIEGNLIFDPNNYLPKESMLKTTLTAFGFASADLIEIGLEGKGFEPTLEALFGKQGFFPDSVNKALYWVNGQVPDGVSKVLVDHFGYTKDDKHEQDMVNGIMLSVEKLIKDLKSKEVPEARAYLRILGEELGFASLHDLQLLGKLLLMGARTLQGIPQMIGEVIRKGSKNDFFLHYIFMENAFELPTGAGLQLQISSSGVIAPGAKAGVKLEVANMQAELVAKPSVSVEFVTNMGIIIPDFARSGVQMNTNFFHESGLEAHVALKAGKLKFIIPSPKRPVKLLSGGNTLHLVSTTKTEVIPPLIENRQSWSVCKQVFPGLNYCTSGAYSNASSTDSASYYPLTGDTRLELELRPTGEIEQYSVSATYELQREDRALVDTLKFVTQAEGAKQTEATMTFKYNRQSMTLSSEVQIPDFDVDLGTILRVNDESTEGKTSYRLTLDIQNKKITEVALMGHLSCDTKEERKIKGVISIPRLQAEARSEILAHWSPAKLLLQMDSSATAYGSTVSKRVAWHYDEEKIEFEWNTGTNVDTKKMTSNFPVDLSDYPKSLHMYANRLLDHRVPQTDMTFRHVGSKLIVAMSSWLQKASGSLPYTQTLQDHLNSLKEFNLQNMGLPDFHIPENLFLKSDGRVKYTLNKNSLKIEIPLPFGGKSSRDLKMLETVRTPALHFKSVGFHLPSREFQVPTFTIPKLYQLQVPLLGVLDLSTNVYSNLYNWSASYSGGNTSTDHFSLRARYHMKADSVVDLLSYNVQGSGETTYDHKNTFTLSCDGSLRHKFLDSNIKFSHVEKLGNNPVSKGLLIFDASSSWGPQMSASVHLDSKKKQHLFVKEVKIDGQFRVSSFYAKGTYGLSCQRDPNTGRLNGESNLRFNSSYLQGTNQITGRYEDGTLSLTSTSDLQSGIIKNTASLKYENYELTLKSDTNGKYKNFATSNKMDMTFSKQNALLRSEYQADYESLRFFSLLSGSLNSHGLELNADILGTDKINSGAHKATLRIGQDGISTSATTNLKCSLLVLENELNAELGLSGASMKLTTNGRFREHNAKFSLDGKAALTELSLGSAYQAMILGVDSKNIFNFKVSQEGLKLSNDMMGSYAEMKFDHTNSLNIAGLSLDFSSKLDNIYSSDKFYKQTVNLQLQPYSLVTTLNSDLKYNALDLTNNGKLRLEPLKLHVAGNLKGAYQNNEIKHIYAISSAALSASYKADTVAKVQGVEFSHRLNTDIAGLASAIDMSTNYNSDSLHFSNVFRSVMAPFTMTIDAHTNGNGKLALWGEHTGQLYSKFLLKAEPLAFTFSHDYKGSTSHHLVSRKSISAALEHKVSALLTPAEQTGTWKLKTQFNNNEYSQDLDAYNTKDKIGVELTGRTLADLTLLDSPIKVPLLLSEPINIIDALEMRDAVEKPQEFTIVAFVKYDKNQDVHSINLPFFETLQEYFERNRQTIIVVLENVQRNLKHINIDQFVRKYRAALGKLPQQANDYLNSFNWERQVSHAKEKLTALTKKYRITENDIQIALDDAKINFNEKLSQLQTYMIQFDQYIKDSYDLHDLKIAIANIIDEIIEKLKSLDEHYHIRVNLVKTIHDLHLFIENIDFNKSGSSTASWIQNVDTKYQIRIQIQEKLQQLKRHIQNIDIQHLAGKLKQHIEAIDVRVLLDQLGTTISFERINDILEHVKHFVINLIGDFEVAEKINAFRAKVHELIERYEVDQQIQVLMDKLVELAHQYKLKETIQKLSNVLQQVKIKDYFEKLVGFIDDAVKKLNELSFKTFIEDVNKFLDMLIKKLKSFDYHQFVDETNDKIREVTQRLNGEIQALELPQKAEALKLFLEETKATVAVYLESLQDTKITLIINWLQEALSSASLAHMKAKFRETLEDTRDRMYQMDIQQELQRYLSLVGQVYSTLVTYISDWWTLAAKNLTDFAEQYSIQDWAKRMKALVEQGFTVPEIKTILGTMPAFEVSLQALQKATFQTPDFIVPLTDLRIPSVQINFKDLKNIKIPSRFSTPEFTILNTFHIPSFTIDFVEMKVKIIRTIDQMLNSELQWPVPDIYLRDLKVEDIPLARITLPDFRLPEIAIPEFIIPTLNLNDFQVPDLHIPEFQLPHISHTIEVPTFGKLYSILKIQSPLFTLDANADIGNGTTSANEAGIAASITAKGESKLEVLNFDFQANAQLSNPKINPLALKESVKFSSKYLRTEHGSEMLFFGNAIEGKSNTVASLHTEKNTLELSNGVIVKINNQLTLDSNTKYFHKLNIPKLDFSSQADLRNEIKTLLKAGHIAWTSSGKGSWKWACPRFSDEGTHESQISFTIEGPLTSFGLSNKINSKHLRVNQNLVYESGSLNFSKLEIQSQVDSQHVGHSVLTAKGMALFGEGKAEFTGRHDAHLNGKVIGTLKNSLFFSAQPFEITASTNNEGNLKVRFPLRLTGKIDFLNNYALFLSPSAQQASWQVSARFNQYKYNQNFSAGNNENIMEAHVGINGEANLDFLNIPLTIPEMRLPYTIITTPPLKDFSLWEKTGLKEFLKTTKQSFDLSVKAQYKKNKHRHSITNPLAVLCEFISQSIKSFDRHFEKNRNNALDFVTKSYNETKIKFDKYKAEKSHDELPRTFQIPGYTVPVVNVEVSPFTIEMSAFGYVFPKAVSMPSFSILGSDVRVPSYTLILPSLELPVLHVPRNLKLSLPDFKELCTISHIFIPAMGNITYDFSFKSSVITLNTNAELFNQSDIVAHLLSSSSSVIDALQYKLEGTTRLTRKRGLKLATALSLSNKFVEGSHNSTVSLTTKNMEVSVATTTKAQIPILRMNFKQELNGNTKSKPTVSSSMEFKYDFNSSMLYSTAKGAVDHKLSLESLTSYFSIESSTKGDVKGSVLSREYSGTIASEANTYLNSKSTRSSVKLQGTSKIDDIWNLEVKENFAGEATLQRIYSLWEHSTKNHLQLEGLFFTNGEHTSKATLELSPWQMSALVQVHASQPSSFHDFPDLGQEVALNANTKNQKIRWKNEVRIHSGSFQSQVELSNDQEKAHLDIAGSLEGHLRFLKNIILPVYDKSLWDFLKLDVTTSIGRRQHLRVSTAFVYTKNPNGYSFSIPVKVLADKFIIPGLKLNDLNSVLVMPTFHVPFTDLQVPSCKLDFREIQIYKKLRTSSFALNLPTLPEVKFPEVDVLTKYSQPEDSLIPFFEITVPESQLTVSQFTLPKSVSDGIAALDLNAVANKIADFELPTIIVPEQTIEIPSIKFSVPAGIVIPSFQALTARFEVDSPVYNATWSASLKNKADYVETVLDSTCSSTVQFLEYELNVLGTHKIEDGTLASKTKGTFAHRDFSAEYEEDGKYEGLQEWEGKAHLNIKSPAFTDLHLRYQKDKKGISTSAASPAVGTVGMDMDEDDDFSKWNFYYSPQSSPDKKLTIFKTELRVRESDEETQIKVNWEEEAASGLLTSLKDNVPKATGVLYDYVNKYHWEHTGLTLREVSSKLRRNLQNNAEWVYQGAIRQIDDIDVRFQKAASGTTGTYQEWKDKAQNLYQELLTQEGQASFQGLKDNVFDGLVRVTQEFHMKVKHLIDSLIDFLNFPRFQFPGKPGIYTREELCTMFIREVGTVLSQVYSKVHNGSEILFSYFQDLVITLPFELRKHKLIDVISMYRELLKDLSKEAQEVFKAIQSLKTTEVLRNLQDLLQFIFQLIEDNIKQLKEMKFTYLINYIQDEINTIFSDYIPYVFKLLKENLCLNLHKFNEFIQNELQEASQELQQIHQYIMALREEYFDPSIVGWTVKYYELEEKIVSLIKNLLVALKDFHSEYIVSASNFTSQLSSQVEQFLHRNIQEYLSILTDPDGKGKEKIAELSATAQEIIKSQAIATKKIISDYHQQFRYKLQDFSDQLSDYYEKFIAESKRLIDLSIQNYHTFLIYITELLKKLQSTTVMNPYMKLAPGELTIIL
Description: as §1, with “LDL or VLDL added to the plate is bound to the antibody as a result of recognition of the specific epitope.” left out
The detailed immunoreactivity protocol is as follows. A nunc maxi-sorp microtiter plate is coated overnight at 4° C. with 100 μl of Anti-Human ApoB monoclonal antibody from Boehringer Mannheim (catalog # 1533 975) diluted 1:1000 in PBS pH 7.4. The compounds are dissolved in DMSO with appropriate concentration of LDL for 15 minutes and incubated at 37° C.
The coated microtiter plate is washed three times with 200 μl PBS/0.05% tween, and a sample of 100 μl LDL/Compound or LDL standard is added to each well. The plates are then incubated for 2 hours at room temperature.
The microtiter plate is washed three times with 200 μl PBS/0.05% tween, and 100 μl of 1:2000 Polyclonal Human Anti-ApolipoproteinB from Boehringer Mannheim (catalog # 726 494) in PBS/tween 0.05% is added. The plate is incubated for one hour at room temperature.
The microtiter plate is washed three times with 200 ul PBS/0.05% tween, and 100 μl of 1:2000 Anti-Sheep Ig peroxidase from Boehringer Mannheim (catalog # 605 345) in PBS/05% tween is added. The plate is incubated for one hour at room temperature.
The microtiter plate is washed three times with 200 ul PBS/0.05% tween, and 100 μl of TMB substrate is added and incubated for 5-10 minutes in the dark. The reaction is stopped with 15 μl 8N H2SO4 and read on the Bio-Rad Microplate plate reader at 450 nm within 30 minutes.

HepG2 cells = assay: Uptake of radioiodinated human LDL by HepG2 cells; type: cell-based; conditions: HepG2, 24 h
Experimental: In order to test whether the change in structure of LDL by the monosuccinic acid ester of probucol can affect the uptake of this lipoprotein by liver cells in vitro, purified human radioiodinated LDL was mixed with various concentrations of the probucol derivative and incubated for 15 minutes at room temperature. After that, the mixture of LDL and the probucol derivative was added to HepG2 cells in culture and the uptake of radiolabeled LDL measured after 24 h. At each concentration of compound, the specific uptake of LDL was also determined by examining LDL uptake in the presence of excess unlabeled LDL.

plasma cholesterol = assay: Plasma cholesterol lowering in hamsters; parameters: species or system hamster; conditions: ability to lower plasma cholesterol in vivo in hamsters, yes/no
Experimental: The monosuccinic acid ester of probucol and several other compounds were tested in vitro in the immunoreactivity cell-free assay described above in Example 3 and in vivo in hamsters for their ability to lower plasma cholesterol.

purified human LDL = biological target: T3, purified human LDL (Homo sapiens, UniProt P04114); assay: Agarose electrophoresis of purified human LDL mixed with compound; type: binding
T3 construct: from tissue; host or cells: human LDL particles (plasma lipoprotein)
T3 sequence (P04114 28-4563): as above
Experimental: Agarose electrophoresis is a technique used to separate and study lipoproteins. The monosuccinic acid ester of probucol was added to purified human LDL and the mixture was run on agarose electrophoresis.

[3] = biological target: T4, other epitopes on LDL apoB-100 (Homo sapiens, UniProt P04114); assay: Epitope specificity: four other monoclonal antibodies (1D, 2D8, 5E11, 4G3) against apoB-100 on LDL; type: binding
T4 construct: from tissue; host or cells: LDL particles (plasma lipoprotein)
T4 sequence (P04114 28-4563): as above
Description: The specificity of epitope expression changes by the monosuccinic acid ester of probucol were established by examining MSE's effects on other epitopes on LDL. This was probed by using four other monoclonal antibodies (1D, 2D8, 5E11, 4G3) in comparison to the Boehringer Mannheim (Band M) antibody used in the assays described above.

VLDL and LDL clearance = assay: Lipoprotein turnover study in monkeys (stable isotope labelling of apoB-100); type: in vivo, monkey; conditions: monkeys, 25 mg/kg/day
Experimental: A lipoprotein turnover study was performed in monkeys that were dosed with the monosuccinic acid ester of probucol (25 mg/kg/day for one four weeks). The clearance rates of VLDL and LDL were examined before and after treatment of the animals using a stable isotope technique to label apoB-100 in VLDL and LDL.

total plasma cholesterol = assay: Cholesterol lowering in mice lacking functional LDL receptors; type: in vivo, mouse; conditions: LDL receptor-deficient mice, 150 mg/kg/day oral with high fat/high cholesterol diet, 12 weeks
Experimental: To explore whether the enhanced clearance is mediated by the tissue LDL receptors, the major clearance mechanism for LDL in the body, the LDL lowering activity of the monosuccinic acid ester of probucol was tested in a mouse model that lacks functional LDL receptors (eliminated through genetic engineering).

T1 sequence (P04114 28-4563): as above

SMILES: CC(C)(Sc1cc(C(C)(C)C)c(O)c(C(C)(C)C)c1)Sc1cc(C(C)(C)C)c(OC(=O)CCC(=O)O)c(C(C)(C)C)c1 [MSE, Butanedioic acid, mono[4-[[1-[[3,5-bis(1,1-dimethylethyl)-4-hydroxyphenyl]thio]-1-methylethyl]thio]-2,6-bis(1,1-dimethylethyl)phenyl] ester]
- increase of binding of VLDL apoB-100 epitope to the antibody relative to native VLDL (apoB-100 epitope in VLDL): about 375%
- MSE recovered in the different lipoprotein fractions [1]: > 80%
- amount found in the non-lipoprotein plasma fraction [1]: Very little
- distribution of MSE among lipoprotein fractions [1]: most being found in the VLDL fraction, followed by LDL and some in IDL and HDL
- increase of binding of LDL to the capture monoclonal antibody ([2]; 15 uM): 300%
- increase of binding of LDL to the capture monoclonal antibody ([2]; 30 uM): 500%
- epitope expression on LDL detected by the Boehringer Mannheim antibody ([2]; FIG. 7): significantly enhanced
- Cell-Free Assay ([2]; immunoreactivity cell-free assay of Example 3, yes/no): yes
- increase of specific uptake of LDL relative to absence of MSE (HepG2 cells; 18 uM): 12.8%
- increase of specific uptake of LDL relative to absence of MSE (HepG2 cells; 25.5 uM): 77.6%
- increase of specific uptake of LDL relative to absence of MSE (HepG2 cells; 33 uM): 249%
- Hamster (plasma cholesterol): yes
- shift of electrophoretic mobility of LDL (purified human LDL): shifted the mobility of LDL
- expression of epitopes detected by the other four antibodies against apoB-100 [3]: unaffected
- LDL clearance rates (VLDL and LDL clearance): increased
- clearance of VLDL after treatment relative to before dosing (VLDL and LDL clearance): marked enhancement
- production of VLDL or LDL (VLDL and LDL clearance): no apparent effects
- effect on total plasma cholesterol levels (total plasma cholesterol): did not result in any significant effects
